The text below walks through data of patent publication US20170319611A1, “METHODS AND COMPOSITIONS COMPRISING AKT INHIBITORS AND/OR PHOSPHOLIPASE D INHIBITORS” (Vanderbilt University, priority 2012, published 2017).

The test system of experiment [1] is LC3 and p62. The experiment is described as follows: Autophagy marker immunoblot (LC3-II, p62), U87MG cells. The experiment is classed as cell-based, human. The note with it: for LC3-II levels relative to vehicle control: serum-free DMEM, 10 nM bafilomycin A1, 10 μM EVJ, 5 μM JWJ or 10 μM MK2206 for 6 h; for accumulation of LC3-II in the presence of bafilomycin A1: 10 nM bafilomycin A1 30 min, then inhibitor 6 h. The method, then:
Lysates were prepared by incubating cell pellets in lysis buffer (see immunoprecipitation procedure) for 30 minutes at 4° C. Protein concentrations were measuring using the Bio-Rad protein assay reagent. The antibodies used in the various studies as described herein, along with their vendors and catalog numbers are provided in Table 3.
In addition to apoptosis, cells undergo another type of programmed cell death requiring autophagy (Tsujimoto and Shimizu, (2005) Cell Death Differ. 12 Suppl 2, 1528-1534), a process known to be stimulated by nutrient or growth factor deprivation (Kroemer, G. et al., (2010) Mol. Cell 40, 280-293). Autophagy is a multistep process involving formation of double-membrane autophagosomes that engulf cytosolic components and deliver cargo to lysosomes for digestion and nutrient recycling (Ravikumar, B. et al., (2009) J. Cell Sci. 122, 1707-1711). In order to determine if autophagy was perturbed following PLD or Akt inhibitor (MK2206) (Hirai, H. et al., (2010) Mol. Cancer Ther. 9, 1956-1967) treatment, the expression levels of the well-characterized autophagy makers microtubule-associated protein 1A/1B-light chain 3 (LC3) and p62 were measured. Autophagasome number is frequently assessed by measuring conversion of cytosolic LC3-I to a membrane-associated, lipidated LC3-II which is readily measureable as a faster migrating species of LC3 during SDS-PAGE (Kabeya, Y. et al., (2000) EMBO J. 19, 5720-5728). The other marker, p62, is an LC3 and ubiquitin-binding protein, involved in the regulation of protein aggregates and is degraded by autophagy (Komatsu, M. et al., (2005) J. Cell Biol. 169, 425-434). Induction of autophagy and successful degradation of autophagosomes would thus be accompanied by a decrease in p62 levels. […] Fold change in immunoreactivity relative to vehicle control. ANOVA with Dunnett's post-hoc test was used to compare inhibitor treatment to vehicle control (**p<0.01).
To conclusively determine that flux, rather than autophagosome initiation, is regulated by PLC, LC3-II conversion in the presence of the lysosomal proton pump inhibitor bafilomycin A1, which prevents autophagosome fusion to lysosomes and inhibits degradation of autophagosomes, was measured. Thus, bafilomycin A1 is commonly used to discriminate the effects of a compound on autophagy initiation versus flux by assessing LC3-II levels in the presence of a test compound after clamping degradation of autophagosomes (Yamamoto, A. et al., (1998) Cell Struct. Funct. 23, 33-42).
A general note: A western blot detects proteins with antibodies after separation by electrophoresis.

The target in experiment [2] is T1, PLD2-Akt interaction (Homo sapiens, UniProt P31749).
T1 construct: 6xHis (N); made in house; host or cells: Sf21 insect cells (baculovirus)
Kind of experiment: In vitro protein-protein interaction assay, purified PLD2 and Akt. The experiment is classed as binding. The following applies: purified proteins, 10 μM inhibitor in reaction mixture. The protocol:
25 nM PLD2-PtS or PtS tag were incubated with 50 nM 6×His-Aktl for 2 h in 50 mM Tris pH 8.0, 0.01% Nonidet P-40, 150 mM NaCl, 0.5 mM EDTA, and 50 mg/mL avidin. Where indicated, 10 μM inhibitor was included in the reaction mixture. PtS-tagged proteins were captured by incubation with strep-tactin resin for 2 h.
Although proteins may co-IP from cell lysate, determining whether proteins form a direct interaction requires binding experiments with purified proteins. As described herein, recombinant Akt and PLD2 was then expressed and purified from Sf21 insect cells (FIG. 8C). […] Numbers indicate molecular weights in kilodaltons. […] Since PLD2 and Akt appear to interact directly, the PLD inhibitors were evaluated to determine whether they disrupted the protein-protein interaction as a potential mechanism by which PLD2 regulates activation of Akt in cells. As described herein, purified PLD2 and Akt were incubated in the presence of EVJ, JWJ, or the allosteric pan-Akt inhibitor, MK2206 (Hirai, H. et al., (2010) Mol. Cancer Ther. 9, 1956-1967) and proteins captured using affinity resin. […] Referring to FIG. 9B, the same procedure was used as in 9A, except 10 μM EVJ, JWJ, or Akt inhibitor MK2206 was included in the reaction mixture.

The subject of experiment [3] is AMPK. Kind of experiment: AMPK activation immunoblot, U87MG cells. Type of experiment: cell-based, human. The following applies: 24 hours, 10 mM EVJ or 5 mM JWJ. The protocol:
Another well-known regulator of autophagy is the adenosine monophosphate-activated protein kinase (AMPK). Changes in intracellular energy balance or metabolic stress are known to activate AMPK (Hardie, D. G. (2007) Nat. Rev. Mol. Cell Bio. 8, 774-785). AMPK serves as a metabolic checkpoint, acting to restore ATP levels through regulation of metabolic enzymes and inhibition of pro-growth anabolic pathways (Hardie, D. G. (2007) Nat. Rev. Mol. Cell Bio. 8, 774-785). […] U87MG cells were treated for 24 hours with […] before lysis and immunoblotting. AMPK activation was measured by assessing phosphorylation at threonine 172 and also by measuring activation of acetyl coenzyme A carboxylase (ACC) at serine 79.
Another AMPK substrate and component of the autophagasome initiation complex is Unc-51-like kinase 1 (ULK1). Several studies (Egan, D. F. et al., (2011) Science 331, 456-461; Kim, J. et al., (2011) Nature Cell Bio. 13, 132-141) have recently identified multiple AMPK sites on ULK1 that function to enhance initiation of autophagy. […] To determine whether the induction of autophagy through AMPK activation requires Akt, Aktl was silenced and then evaluated for effects of PLD inhibition on AMPK and ULK1 phosphorylation. Aktl was chosen to silence since Aktl phosphorylation was decreased following PLD inhibition in U87MG cells. […] U87MG cells were transfected with Aktl siRNA for 72 hours prior to cell lysis. Cells were treated with […] JWJ 24 hours prior to cell lysis.

Experiment [4] has as its system PLD. The experiment is described as follows: Endogenous PLD activity assay (PtdBuOH) in U87MG cells. The experiment is classed as cell-based, human.
Protocol: Data is presented as the ratio of the predominant phosphatidylbutanol peaks to the internal standard. To generate concentration response curves, U87MG cells were serum starved for approximately 24 hours. Cells were treated with the indicated concentration of PLD inhibitor for 15 minutes prior to addition of n-butanol containing media and phospolipid extraction.
Cells were pretreated with inhibitors 30 min prior to measurement of PLD activity. Data is presented as the percent activity remaining after PLD inhibitor treatment relative to control.
The subject of experiment [5] is myrAktl. Kind of experiment: Akt phosphorylation immunoblot, myrAktl U87MG cells. The experiment is classed as cell-based, human. The following applies: overnight, serum-free DMEM; 10 μM EVJ or 5 μM JWJ. The protocol: To confirm the observed effects on autophagy and cell death following PLD inhibition in glioma cells was due to the regulation of Akt by PLD2, a stable U87MG cell line was developed to expresses a constitutively active form of Akt under the transcriptional control of the tetracycline repressor protein (Yao, F. et al., (1998) Hum. Gene Ther. 9, 1939-1950). This Akt construct contains the myristoylation sequence from Src kinase (Kohn, A. D. et al., (1996) J. Biol. Chem. 271, 31372-31378) and is constitutively membrane associated and active. Without wishing to be bound by a particular theory, if PtdOH serves to enhance membrane docking of Akt then PLD inhibition should not decrease phosphorylation of myristoylated Akt (myrAkt) since this construct bypasses lipid recruitment signals for membrane association. […] Tetracycline inducible myrAktl-expressing U87MG cells, or parental cells, were seeded into media containing 0.1 ug/ml tetracycline and protein expression induced for approximately 24 hours. […] Cells were seeded and treated as in figure A and immunoblotted for phosphorylated and total AMPK. AMPK activation was quantitated by densitometric quantification of the phospho-AMPK band over the total AMPK band. Fold changes were calculated by normalizing the DMSO condition to 1 for each cell line. […] Referring to FIG. 23B, parental or myrAktl U87MG cells were treated with the indicated inhibitors as in 23A overnight before blotting for phosphorylated and total Akt.

T1 sequence (P31749 whole entry): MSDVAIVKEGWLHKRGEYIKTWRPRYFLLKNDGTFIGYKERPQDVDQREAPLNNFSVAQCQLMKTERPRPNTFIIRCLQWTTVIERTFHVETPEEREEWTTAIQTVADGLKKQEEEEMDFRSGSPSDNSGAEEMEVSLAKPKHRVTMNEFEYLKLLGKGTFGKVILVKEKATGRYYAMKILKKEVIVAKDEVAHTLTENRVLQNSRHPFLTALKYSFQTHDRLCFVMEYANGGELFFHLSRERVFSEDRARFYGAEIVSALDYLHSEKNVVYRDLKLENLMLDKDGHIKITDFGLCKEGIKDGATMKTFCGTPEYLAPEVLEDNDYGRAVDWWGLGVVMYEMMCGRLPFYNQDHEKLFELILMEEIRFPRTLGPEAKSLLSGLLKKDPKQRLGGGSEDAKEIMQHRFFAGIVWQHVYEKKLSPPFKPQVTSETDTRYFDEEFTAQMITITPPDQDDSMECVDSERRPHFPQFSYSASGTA

As to `CO/C1=C\C(C)=C\[C@@H](C)[C@@H](O)[C@@H](C)C/C(C)=C/C=C/[C@H](OC)[C@@H]([C@@H](C)[C@@H](O)[C@H](C)[C@@]2(O)C[C@@H](O)[C@H](C)[C@@H](C(C)C)O2)OC1=O` [Bafilomycin A1], the “LC3-II levels relative to vehicle control” value in experiment [1] was “increased LC3-II levels relative to vehicle control”.
In the case of `NC1(c2ccc(-c3nc4ccn5c(=O)[nH]nc5c4cc3-c3ccccc3)cc2)CCC1` [MK2206], in experiment [2], the PLD2-Akt interaction result is “disrupted the PLD2-Akt interaction”. For the same molecule, in experiment [1], the “accumulation of LC3-II in the presence of bafilomycin A1” value is given as “no additional accumulation of LC3-II” and the “LC3-II levels relative to vehicle control” value is given as “increased LC3-II levels relative to vehicle control”.
As usually defined, the IC50 is the point on the concentration scale where inhibition reaches its midpoint. Turning to `C[C@@H](CN1CCC(n2c(=O)[nH]c3cc(Br)ccc32)CC1)NC(=O)[C@@H]1C[C@@H]1c1ccccc1` [No. 2, (1R,2S)—N-((S)-1-(4-(5-bromo-2-oxo-2,3-dihydro-1H-benzo[d]imidazol-1-yl)piperidin-1-yl)propan-2-yl)-2-phenylcyclopropane carboxamide], in experiment [2], the PLD2-Akt interaction entry is listed as “detected even in the presence of PLD inhibitors”. In experiment [1], the “accumulation of LC3-II in the presence of bafilomycin A1” value is recorded as “no additional accumulation of LC3-II”. In experiment [3], the “AMPK activation (phosphorylation of threonine 172)” value is on record as “observed to increase” and the “phosphorylation of acetyl-coA carboxylase (serine 79)” value is given as “increased phosphorylation of acetyl-coA carboxylase”. Also, the IC50 in experiment [4] (U87MG cells, serum withdrawn 24 h, inhibitor pretreatment 30 min, read-out: IC50, attenuation of PLD activity following serum-withdrawal) is around 500 nM. In addition, the “phosphorylated Akt in myrAktl U87MG cells” value in experiment [5] is “failed to reduce levels of phosphorylated Akt”.
Consider `CCC(=O)N1CCN(c2ccc(-n3c(=O)ccc4cnc5ccc(-c6cnc7ccccc7c6)cc5c43)cc2C(F)(F)F)CC1` [Torinl, reference compound], for which, in experiment [5], the “phosphorylated Akt in myrAktl U87MG cells” value is “decreased phosphorylation of myrAktl”.
Take `C[C@@H](CN1CCC(n2c(=O)[nH]c3cc(Cl)ccc32)CC1)NC(=O)c1ccc2ccccc2c1` [VU0155069, reference compound]: in experiment [4] (U87MG glioblastoma cells, FIG. 28B), the PtdBuOH production result was “blocks PtdBuOH production”.
